According to the NIST ThermoML archive (doi:10.1021/je034209e):
Numbers after ± are expanded uncertainties.

Test: mn = molality of the nth substance listed, in mol/kg
Conditions: 298.15 K, 101.3 kPa, Liquid, Vibrating tube method

SMILES: CC(=O)[O-].[Na+] [sodium ethanoate] + O
- mass density (m1 = 0.5): 1023.28 ± 1.8 kg/m3
- mass density (m1 = 1): 1047.56 ± 1.8 kg/m3
- mass density (m1 = 2): 1086.81 ± 1.9 kg/m3
- mass density (m1 = 4): 1123.24 ± 2 kg/m3
- mass density (m1 = 5.5): 1139.16 ± 2 kg/m3

SMILES: CC(N)C(=O)O (stereo not drawn) [DL-2-aminopropanoic acid] + O
- mass density (m1 = 0.0436): 998.297 ± 1.7 kg/m3
- mass density (m1 = 0.08036): 999.343 ± 1.7 kg/m3
- mass density (m1 = 0.1483): 1001.26 ± 1.7 kg/m3
- mass density (m1 = 0.2059): 1002.86 ± 1.7 kg/m3
- mass density (m1 = 0.3297): 1006.26 ± 1.8 kg/m3
- mass density (m1 = 0.3863): 1007.79 ± 1.8 kg/m3
- mass density (m1 = 0.4436): 1009.33 ± 1.8 kg/m3

SMILES: CCC(N)C(=O)O (stereo not drawn) [(.+-.)-α-aminobutyric acid] + O
- mass density (m1 = 0.03934): 998.127 ± 1.7 kg/m3
- mass density (m1 = 0.08124): 999.275 ± 1.7 kg/m3
- mass density (m1 = 0.1445): 1000.99 ± 1.7 kg/m3
- mass density (m1 = 0.2022): 1002.54 ± 1.7 kg/m3
- mass density (m1 = 0.2374): 1003.48 ± 1.8 kg/m3
- mass density (m1 = 0.2864): 1004.78 ± 1.8 kg/m3
- mass density (m1 = 0.3179): 1005.6 ± 1.8 kg/m3

SMILES: N[C@@H](Cc1ccccc1)C(=O)O [L-phenylalanine] + O
- mass density (m1 = 0.01545): 997.721 ± 1.7 kg/m3
- mass density (m1 = 0.02099): 997.961 ± 1.7 kg/m3
- mass density (m1 = 0.02977): 998.343 ± 1.7 kg/m3
- mass density (m1 = 0.03372): 998.516 ± 1.7 kg/m3
- mass density (m1 = 0.04624): 999.058 ± 1.7 kg/m3
- mass density (m1 = 0.05305): 999.349 ± 1.7 kg/m3
- mass density (m1 = 0.05832): 999.577 ± 1.7 kg/m3

SMILES: NCC(=O)O [2-aminoacetic acid] + O
- mass density (m1 = 0.09741): 1000.14 ± 1.7 kg/m3
- mass density (m1 = 0.2011): 1003.37 ± 1.7 kg/m3
- mass density (m1 = 0.3016): 1006.46 ± 1.8 kg/m3
- mass density (m1 = 0.3936): 1009.25 ± 1.8 kg/m3
- mass density (m1 = 0.4878): 1012.07 ± 1.8 kg/m3
- mass density (m1 = 0.5916): 1015.1 ± 1.8 kg/m3

SMILES: CC(C)C[C@H](N)C(=O)O [L-leucine] + O
- mass density (m1 = 0.01266): 997.346 ± 1.7 kg/m3
- mass density (m1 = 0.01738): 997.458 ± 1.7 kg/m3
- mass density (m1 = 0.02274): 997.582 ± 1.7 kg/m3
- mass density (m1 = 0.03028): 997.762 ± 1.7 kg/m3
- mass density (m1 = 0.03943): 997.975 ± 1.7 kg/m3
- mass density (m1 = 0.04666): 998.149 ± 1.7 kg/m3
- mass density (m1 = 0.05611): 998.37 ± 1.7 kg/m3
